In patent US20080233216A1, “Composition Comprising the Extract of Siegesbeckiae Herba For Preventing and Treating Arthritis and the Use Thereof” (Industry Academic Cooperation Foundation Of Kyunghee …, priority 2006, published 2008):

Assays:
Type in all cases: in vivo
Male ICR mouse [1] = experiment: Acetic acid induced writhing analgesia test; details: 100 mg/kg oral, 1 h before 0.7% acetic acid; writhing counted 10 min
Method: In order to determine the analgesic activity of the inventive extract of the present invention, acetic acid-induced writhing test was performed according to the method disclosed in the literature as follows (Whittle B A, Brit. J. Pharmacol. Chemother., 22, pp 246-253, 1964).
Male ICR mouse (Jung Ang laboratory animal, Japan) weighing from 20 to 25 g was acclimated for several days and each group consists of 10 mice.

Male ICR mouse [2] = experiment: Croton oil induced ear oedema; details: 100 mg/kg oral; ear thickness 4 hours after 2.5% croton oil
Method: In order to determine the anti-inflammatory activity of inventive extract, following test using croton oil-induced ear edema was performed according to method disclosed in the literature (Zhang B et al., Eur. J. Pharmacol., 530(1-2), pp 166-171, 2006).
Male ICR mouse (Jung Ang laboratory animal, Japan) weighing from 20 to 30 g was used as an experimental animal and each group consists of 6 mice. […] After 4 hours, the increased rate of ear thickness was calculated by comparing with that of left ear and the result was shown in Table 4.

Male ICR mouse [3] = experiment: Arachidonic acid induced ear edema; details: 100 mg/kg oral; ear thickness 1 hour after arachidonic acid
Method: In order to determine the anti-inflammatory activity of inventive extract, following test using arachidonic acid-induced ear edema was performed according to method disclosed in the literature (Zhou H et al., Biol. Pharm. Bull., 29(2) pp 253-260, 2006).
Male ICR mouse (Jung Ang laboratory animal, Japan) weighing from 20 to 30 g was used as an experimental animal and each group consists of 10 mice. […] After 1 hour, the increased rate of ear thickness was calculated by comparing with that of left ear and the result was shown in Table 3.

SMILES: Cc1ccc(-c2cc(C(F)(F)F)nn2-c2ccc(S(N)(=O)=O)cc2)cc1 [Celecoxib]
- Inhibition of writhing (%) (Male ICR mouse [1]): 61.9%
- Inhibition rate of edema (%) (Male ICR mouse [2]): 33.12%
- Inhibition rate of edema (%) (Male ICR mouse [3]): 25.29%
